Measured values published in US4446133A, “1-Phenyl-4-carbamoyl piperazine compounds, process for preparation thereof and utilizations thereof” (Misuitoatsu Chemicals, Inc., priority 1980, dated 1984).
Counter-ions that a name gives are not always drawn.

How the values were obtained:
delayed hypersensitivity = experiment: Test 1: Test of Reinforcement of Delayed Hypersensitivity (picryl chloride); assay type: in vivo, ICR male mice
Description: This system was used for the test of reinforcement of delayed hypersensitivity.
One group of eight ICR male mice, each having a body weight of about 30 g, were used for the test.
Sensitization was effected by coating a 7% solution of picryl chloride in a 4/1 mixture of olive oil and acetone on the shaved abdomen of the mouse.
Simultaneously with sensitization, a solution or suspension of the compound of the present invention in a 0.2% solution of carboxymethyl cellulose in a physiological saline was orally administered to the mouse at a dose of 50 mg per Kg of the body weight. To the control group, a 0.2% carboxymethyl cellulose solution in a physiological saline was similarly administered.
The delayed hypersensitivity was challenged 7 days after sensitization by gripping the ear of the mouse by a forceps wrapped with a felt impregnated with a 1% solution of picryl chloride in olive oil and coating the ear with the solution. The thickness of the ear was measured before challenging and 24 hours after challenging and the ratio of increase of the thickness (average value of both the ears in eight mice±standard deviation) was obtained as shown in Table 1.
For comparison, the test was similarly carried out by using Levamisole hydrochloride, and the obtained results are shown in Table 1. F.t tests were carried out. The group in which the test result was significant at a level of P<0.05 was marked by *, and the group in which the test result was significant at a level of P<0.01 was marked by **.

Sarcoma 180 [1] = experiment: Test 4: Test of Antitumor Effect to Sarcoma 180 by Oral Administration; assay type: in vivo, ICR female mice
Method: To the control group, a physiological saline solution was similarly administered. The dose of the compound was 100 mg per Kg of the body weight. The diameter D (mm) of the tumor was measured, and the average value and the number N of the living mice were determined to obtain results shown in Table 4.

adjuvant arthritis = experiment: Test 2: Adjuvant Arthritis Test; assay type: in vivo, SD male rats; settings: 5 mg/kg subcutaneous, 9 times, left hind leg, * P<0.05, ** P<0.01
Sarcoma 180 [2] = experiment: Test 5: Test of Antitumor Effect to Sarcoma 180 by Subcutaneous Administration; assay type: in vivo, ICR female mice; settings: 20 mg/kg subcutaneous
Method: To the control group, a physiological saline solution was similarly administered. […] The diameter D (mm) of the tumor was measured, and the average value and the number N of the living mice were determined to obtain results shown in Table 4.

EL-4 leukemic cells = experiment: Test 3: In-Vitro Test of Inhibition of Growth of Cancer Cell by Macrophage; assay type: cell-based; settings: for Inhibition of take-in of 3H-thymidine by EL-4 cells / activation of macrophage, in words: 8 mg/kg intraperitoneal; for Take-in Ratio of 3H-thymidine (average value): 8 mg/kg intraperitoneal to mice, macrophages collected after 4 days, mixed with EL-4 cells, control 80.2
Method: The results of the test of the action of the effective ingredient of the present invention on the macrophage will now be described with reference to the following Test 3. More specifically, the separated macrophage and EL-4 leukemic cell were mixed and cultured, and ^3 H-thymidine was added to a culture medium and the quantity of ^3 H-thymidine incorporated into the EL-4 cell was determined to examine the activity of the macrophage. When the macrophage is activated by administration of the effective ingredient of the present invention, inhibition of the growth of EL-4 cell, that is, phagocytosis of the cancer cell by the macrophage, is observed. Accordingly, if the take-in amount of ^3 H-thymidine is measured and this amount is reduced, it is confirmed that the macrophage has been activated. […] The dose was 8 mg per Kg of the body weight. To the control group, a physiological saline solution was similarly administered. After passage of 4 days, exuded abdominal cells were collected and deposited on a plastic Petri dish to collect macrophages. Then, 1×10^6 of so obtained macrophages and 1×10^5 of EL-4 leukemic cells of C57 BL/6J mouse were mixed and cultured in an RPMI 1640 culture medium to which 10% of bovine embryo serum was added (at 37° C. in the presence of 5% of CO2) for 24 hours. Then, 0.1μ Ci of ^3 H-thymidine was added and culturing was further conducted for 16 hours. Cells were collected on a filter paper from the culture medium and the amount of ^3 H-thymidine taken in was determined by a liquid scintillation counter. […] For comparison, the test was similarly carried out by using Levamisol hydrochloride.

[3] = 50 mg/kg oral, simultaneously with sensitization, 24 h after challenge, control 29.6 ± 1.9, * P<0.05, ** P<0.01

c1ccc([C@H]2CN3CCSC3=N2)cc1 [Levamisole hydrochloride, reference compound]
Ratio of Increase of Ear Thickness (average value ± standard variation) (delayed hypersensitivity; mouse, in vivo): 35.6 ± 2.4% | D: average diameter of tumor, 2 weeks (Sarcoma 180 [1]; 100 mg/kg oral once a day, 10 days, 2 weeks, control 10.6): 10.2 mm | D: average diameter of tumor, 4 weeks (Sarcoma 180 [1]; 100 mg/kg oral once a day, 10 days, 4 weeks, control 15.2): 16.2 mm | D: average diameter of tumor, 6 weeks (Sarcoma 180 [1]; 100 mg/kg oral once a day, 10 days, 6 weeks, control 22.4): 20.7 mm | D: average diameter of tumor, 8 weeks (Sarcoma 180 [1]; 100 mg/kg oral once a day, 10 days, 8 weeks, control 31.5): 29.6 mm | D: average diameter of tumor, 10 weeks (Sarcoma 180 [1]; 100 mg/kg oral once a day, 10 days, 10 weeks, control 37.6): 28.1 mm | Carcinostatic action on Sarcoma 180, in words (Sarcoma 180 [1]; 100 mg/kg oral, repeated): no substantial carcinostatic action was observed | N: number of living mice, 0 weeks (Sarcoma 180 [1]; 100 mg/kg oral, of 6 mice, 0 weeks, control 6): 6 | N: number of living mice, 2 weeks (Sarcoma 180 [1]; 100 mg/kg oral, of 6 mice, 2 weeks, control 6): 6 | N: number of living mice, 4 weeks (Sarcoma 180 [1]; 100 mg/kg oral, of 6 mice, 4 weeks, control 6): 6 | N: number of living mice, 6 weeks (Sarcoma 180 [1]; 100 mg/kg oral, of 6 mice, 6 weeks, control 6): 6 | N: number of living mice, 8 weeks (Sarcoma 180 [1]; 100 mg/kg oral, of 6 mice, 8 weeks, control 5): 6 | N: number of living mice, 10 weeks (Sarcoma 180 [1]; 100 mg/kg oral, of 6 mice, 10 weeks, control 1): 3 | Swelling Ratio (average value ± standard variation), 15 days (adjuvant arthritis; 15 days, control 84.4 ± 9.0): 65.2 ± 5.9% | Swelling Ratio (average value ± standard variation), 18 days (adjuvant arthritis; 18 days, control 103.2 ± 9.7): 69.3 ± 7.1% | Swelling Ratio (average value ± standard variation), 21 days (adjuvant arthritis; 21 days, control 107.5 ± 13.3): 80.7 ± 9.6% | Carcinostatic activity on Sarcoma 180, in words (Sarcoma 180 [2]): no substantial carcinostatic activity | D: average diameter of tumor, 2 weeks (Sarcoma 180 [2]; 2 weeks, control 10.8): 7.7 mm | D: average diameter of tumor, 4 weeks (Sarcoma 180 [2]; 4 weeks, control 16.6): 14.8 mm | D: average diameter of tumor, 6 weeks (Sarcoma 180 [2]; 6 weeks, control 20.3): 14.4 mm | D: average diameter of tumor, 8 weeks (Sarcoma 180 [2]; 8 weeks, control 31.3): 30.2 mm | D: average diameter of tumor, 10 weeks (Sarcoma 180 [2]; 10 weeks, control 40.5): 31.6 mm | N: number of living mice, 0 weeks (Sarcoma 180 [2]; of 6 mice, 0 weeks, control 6): 6 | N: number of living mice, 2 weeks (Sarcoma 180 [2]; of 6 mice, 2 weeks, control 6): 6 | N: number of living mice, 4 weeks (Sarcoma 180 [2]; of 6 mice, 4 weeks, control 6): 6 | N: number of living mice, 6 weeks (Sarcoma 180 [2]; of 6 mice, 6 weeks, control 6): 6 | N: number of living mice, 8 weeks (Sarcoma 180 [2]; of 6 mice, 8 weeks, control 4): 3 | N: number of living mice, 10 weeks (Sarcoma 180 [2]; of 6 mice, 10 weeks, control 1): 2 | Inhibition of take-in of 3H-thymidine by EL-4 cells / activation of macrophage, in words (EL-4 leukemic cells): does not exhibit such action | Take-in Ratio of 3H-thymidine (average value) (EL-4 leukemic cells): 49.0% | Inhibition of take-in of 3H-thymidine by EL-4 cells / activation of macrophage, in words (EL-4 leukemic cells; listed as Levamisole): hardly exhibits such action

CCN(CC)C(=O)N1CCN(c2ccccc2)CC1 [drawing 11]
Ratio of Increase of Ear Thickness (average value ± standard variation) (delayed hypersensitivity; [3]): 44.0 ± 5.0%

CCN(CC)C(=O)N1CCN(c2ccc(Cl)cc2)CC1 [drawing 12]
Ratio of Increase of Ear Thickness (average value ± standard variation) (delayed hypersensitivity; [3]): 42.3 ± 3.7%

CCN(CC)C(=O)N1CCN(c2ccc(OC)cc2)CC1 [drawing 13]
Ratio of Increase of Ear Thickness (average value ± standard variation) (delayed hypersensitivity; [3]): 40.1 ± 4.2%

CCOC(=O)c1ccc(N2CCN(C(=O)N(CC)CC)CC2)cc1 [drawing 14]
Ratio of Increase of Ear Thickness (average value ± standard variation) (delayed hypersensitivity; [3]): 39.1 ± 4.0%

CCN(CC)C(=O)N1CCN(c2ccc(C(=O)O)cc2)CC1 [drawing 15]
Ratio of Increase of Ear Thickness (average value ± standard variation) (delayed hypersensitivity; [3]): 37.7 ± 3.0%

CCN(CC)C(=O)N1CCN(c2ccc(C(C)=O)cc2)CC1 [drawing 16]
Ratio of Increase of Ear Thickness (average value ± standard variation) (delayed hypersensitivity; [3]): 38.8 ± 3.5%

CCN(CC)C(=O)N1CCN(c2ccccc2)CC1 [drawing 23]
Take-in Ratio of 3H-thymidine (average value) (EL-4 leukemic cells): 24.4%

CCN(CC)C(=O)N1CCN(c2ccc(Cl)cc2)CC1 [drawing 24]
Take-in Ratio of 3H-thymidine (average value) (EL-4 leukemic cells): 20.5%

CCN(CC)C(=O)N1CCN(c2ccc(OC)cc2)CC1 [drawing 25]
Take-in Ratio of 3H-thymidine (average value) (EL-4 leukemic cells): 27.7%

CCOC(=O)c1ccc(N2CCN(C(=O)N(CC)CC)CC2)cc1 [drawing 26]
Take-in Ratio of 3H-thymidine (average value) (EL-4 leukemic cells): 30.3%

CCN(CC)C(=O)N1CCN(c2ccc(C(=O)O)cc2)CC1 [drawing 27]
Take-in Ratio of 3H-thymidine (average value) (EL-4 leukemic cells): 29.8%

CCN(CC)C(=O)N1CCN(c2ccc(C(C)=O)cc2)CC1 [drawing 28]
Take-in Ratio of 3H-thymidine (average value) (EL-4 leukemic cells): 27.4%
